Where two headings read alike, the source gives them in different places. Positions of bridges follow the written chain, without caps; N, C: chain ends. Non-standard residues stand in square brackets, D forms with d. Residues, ends and D or L forms follow the SMILES beside them. No end group written: not given here. S5 = C=CCCC[C@](C)(N)C(=O)O
Assays:
[1] = tested on: HSV-1; assay: microbe, parasite or virus in culture; assay type: cell-based
Method: Cells with ~90% confluence in 48-well plates were infected by absorbing virus (~100 PFU/well) for 1 h in 100 µL growth medium followed by adding 200 µL culture medium containing DMSO vehicle or serially diluted peptides or Acyclovir (Tocris Bioscience-Fisher Scientific) to each well of the plate. DMSO was maintained at 1% throughout the treatment. Cells were subsequently fixed and stained with 300 µL PBS containing 4% formaldehyde and 0.2% crystal violet overnight at room temperature. HSV-1 plaques were quantified at ~55 h post-infection of Vero cells. VV (WR strain) infection of BSC-1 cells was analyzed for plaque formation after 24 h. The plaque reduction assays were performed in duplicate and independently repeated twice. Cells were stained, and plaques counted under a dissecting microscope. Data were plotted on the GraphPad Prism.
Standard viral plaque reduction assays were conducted in Vero cells to determine if any of the five stapled peptides (S-pep1/3/4/7/8) that were able to block processive DNA synthesis, could also block HSV-1 infection. To minimize possible interference of HSV-1 cell attachment and entry by the peptides, cells were first infected by absorbing the virus for 1 h, followed by treatment with peptides at serial dilutions. […] The EC50 values of both S-pep3 and S-pep8 were approximately 100 µM (FIG. 15C and FIG. 15F). Additionally, S-pep4 was toxic at 12.5 µM, which precluded further optimization.

[2] = target: HSV-1 UL30 DNA Polymerase and UL42 Processivity Factor (Human herpesvirus 1, UniProt P10226); assay: In vitro processive DNA synthesis assay (ELISA-based Rapid Plate Assay); assay type: biochemical; conditions: for IC50, µM* (HSV1 UL30+UL42): inhibition of HSV-1 processive DNA synthesis in vitro by UL30 and UL42
Method: The assay was performed by the enzyme-linked immunosorbent assay (ELISA)-based Rapid Plate Assay (J. Virol. Methods 2000, 88:219-225; Methods Mol. Biol. 2005, 292:481-492; J. Med. Chem. 2008, 51:6563-6570), using in vitro translated viral DNA polymerase and processivity factor.
Briefly, the assay comprised a 100-nucleotide single-stranded DNA template that has biotin covalently linked to the 5′ end. The biotin-labeled oligonucleotide template was immobilized onto streptavidin, which was coated onto each well of a micro-titer plate. An oligonucleotide primer (15mer) was annealed to the 3′ end of the biotin-labeled DNA template. HSV-1 UL-30 and HSV-1 UL-42 (either in vitro translated or purified) were added and incubated with serial dilutions of the stapled peptides. DNA synthesis was measured by direct incorporation of the 4 dNTPs as well as the signal nucleotide, digoxigenin-dUTP (1:5, dig-dUTP:dTTP). A peroxidase-conjugated anti-digoxigenin antibody that recognizes the newly synthesized DNA generated a colorimetric reaction that was quantified with a plate reader at 405 nm.
In certain non-limiting embodiments, the shown staples (or tethers), which provide rigidity, had linked-spacing of one full turn (i,i+4) or two full turns (i,i+7) of the helix to stay in helical register (3.6 amino acids/turn). In other embodiments, the staple was on the solvation side of the helix. Residues on the opposite side contact the PF target protein UL42. These UL42 residues are D63, R64 and K289 (FIGS. 13A-13C). Hydrogen bonds between residues of UL42 and C-Pol are shown as dotted lines. The IC50 values recited herein were quantitated using the assay described in U.S. Pat. No. 6,204,028, which is incorporated herein in its entirety by reference (FIG. 14).

[3] = target: T1, HSV-1 Processivity Factor (UL42) (HSV-1 (strain KOS), UniProt P10226 1-488); assay: cell-based or functional assay
T1 sequence: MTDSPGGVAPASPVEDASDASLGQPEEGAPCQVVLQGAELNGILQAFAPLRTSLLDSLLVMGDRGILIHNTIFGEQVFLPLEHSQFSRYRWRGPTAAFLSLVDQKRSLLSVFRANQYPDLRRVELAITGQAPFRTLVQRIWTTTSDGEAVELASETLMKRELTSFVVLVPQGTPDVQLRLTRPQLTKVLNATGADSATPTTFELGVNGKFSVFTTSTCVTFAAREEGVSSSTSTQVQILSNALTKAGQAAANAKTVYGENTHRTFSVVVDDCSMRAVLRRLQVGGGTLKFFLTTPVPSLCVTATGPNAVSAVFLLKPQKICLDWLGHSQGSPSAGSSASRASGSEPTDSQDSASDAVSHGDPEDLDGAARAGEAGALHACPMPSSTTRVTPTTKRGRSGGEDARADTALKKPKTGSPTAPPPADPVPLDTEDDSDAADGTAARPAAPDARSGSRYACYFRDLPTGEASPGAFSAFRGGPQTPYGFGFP

For `Nc1nc2c(ncn2COCCO)c(=O)[nH]1` [Acyclovir, reference compound], which EC50 ([1]; Human alphaherpesvirus 1, Vero cells, peptides added after 1 h virus absorption, plaques counted at ~55 h, read-out: EC50, inhibition of HSV-1 plaque formation) is on record?
The EC50 was 0.81 µM.

With `CSCC[C@H](NC(=O)[C@H](CCCNC(=N)N)NC(=O)[C@H](CCCNC(=N)N)NC(=O)[C@@H](NC(=O)[C@H](CCC(=O)O)NC(C)=O)[C@@H](C)O)C(=O)N[C@@H](CC(C)C)C(=O)N[C@@H](Cc1c[nH]cn1)C(=O)N[C@@H](CCCNC(=N)N)C(=O)N[C@@H](C)C(=O)N[C@@H](Cc1ccccc1)C(=O)N[C@@H](CC(=O)O)C(=O)N[C@H](C(=O)N[C@@H](CC(C)C)C(=O)N[C@@H](C)C(=O)O)[C@@H](C)O` [N-pep, Ac-ETRRMLHRAFDTLA, reference compound] as the molecule, how does the IC50 [2] read?
Its IC50 is over 200 µM.

What about the “IC50, µM* (HSV1 UL30+UL42)” value ([2]; listed as Non-stapled) of the same molecule?
The value was “no inhibition”.

What about the “IC50, µM* (HSV1 UL30+UL42)” value ([2]; listed as native (unstapled) C-Pol peptide) of the same molecule?
The value was “fails to inhibit”.

What about the EC50 ([1]; 1 h) of the same molecule?
Its EC50 is over 200 µM.

Which results are given for `CC(=O)N[C@@]1(C)CCCC=CCCC[C@@](C)(C(=O)N[C@@H](CC(C)C)C(=O)N[C@@H](Cc2c[nH]cn2)C(=O)N[C@@H](CCCNC(=N)N)C(=O)N[C@@H](C)C(=O)N[C@@H](Cc2ccccc2)C(=O)N[C@@H](CC(=O)O)C(=O)N[C@H](C(=O)N[C@@H](CC(C)C)C(=O)N[C@@H](C)C(=O)O)[C@@H](C)O)NC(=O)[C@H](CCCNC(=N)N)NC(=O)[C@H](CCCNC(=N)N)NC(=O)[C@H]([C@@H](C)O)NC1=O` [S-pep1, Ac-XTRRXLHRAFDTLA] (Ac-[S5]TRR[S5]LHRAFDTLA-OH; staple 1-5; C-terminus assumed)?
IC50, µM* (HSV1 UL30+UL42) [2]: successfully inhibits; EC50 ([1]; 1 h): 43 µM

With `CC(=O)N[C@@]1(C)CCCC=CCCC[C@@](C)(C(=O)N[C@@H](CC(C)C)C(=O)N[C@@H](Cc2c[nH]cn2)C(=O)N[C@@H](CCCNC(=N)N)C(=O)N[C@@H](C)C(=O)N[C@@H](Cc2ccccc2)C(N)=O)NC(=O)[C@H](CCCNC(=N)N)NC(=O)[C@H](CCCNC(=N)N)NC(=O)[C@H]([C@@H](C)O)NC1=O` [S-pep2, Ac-XTRRXLBRAF-NH2] (Ac-[S5]TRR[S5]LHRAF-NH2; staple 1-5) as the molecule, how does the IC50 [2] read?
Its IC50 is over 200 µM.

For `CC(=O)N[C@@H](C)C(=O)N[C@@H](CCC(=O)O)C(=O)N[C@@]1(C)CCCC=CCCC[C@@](C)(C(=O)N[C@@H](CC(C)C)C(=O)N[C@@H](Cc2c[nH]cn2)C(=O)N[C@@H](CCCNC(=N)N)C(=O)N[C@@H](C)C(=O)N[C@@H](Cc2ccccc2)C(=O)N[C@@H](CC(=O)O)C(=O)N[C@H](C(=O)N[C@@H](CC(C)C)C(=O)N[C@@H](C)C(=O)O)[C@@H](C)O)NC(=O)[C@H](CCCNC(=N)N)NC(=O)[C@H](CCCNC(=N)N)NC(=O)[C@H]([C@@H](C)O)NC1=O` [S-pep3, Ac-AEXTRRXLHRAFDTLA] (Ac-AE[S5]TRR[S5]LHRAFDTLA-OH; staple 3-7; C-terminus assumed), which EC50 ([1]; 1 h) is on record?
The EC50 was about 100 µM.

Which results are given for `CSCC[C@@H]1NC(=O)[C@H](CCCNC(=N)N)NC(=O)[C@H](CCCNC(=N)N)NC(=O)[C@@](C)(NC(C)=O)CCCC=CCCC[C@@](C)(C(=O)N[C@@H](Cc2c[nH]cn2)C(=O)N[C@@H](CCCNC(=N)N)C(=O)N[C@@H](C)C(=O)N[C@@H](Cc2ccccc2)C(=O)N[C@@H](CC(=O)O)C(=O)N[C@H](C(=O)N[C@@H](CC(C)C)C(=O)N[C@@H](C)C(=O)O)[C@@H](C)O)NC1=O` [S-pep5, Ac-XRRMXHRAFDTLA] (Ac-[S5]RRM[S5]HRAFDTLA-OH; staple 1-5)?
IC50 [2]: > 200 µM; IC50, µM* (HSV1 UL30+UL42) [2]: failed to inhibit

`CC(=O)N[C@@H](CCC(=O)O)C(=O)N[C@H](C(=O)N[C@@H](CCCNC(=N)N)C(=O)N[C@@H](CCCNC(=N)N)C(=O)N[C@@]1(C)CCCC=CCCC[C@@](C)(C(=O)N[C@@H](Cc2ccccc2)C(=O)N[C@@H](CC(=O)O)C(=O)N[C@H](C(=O)N[C@@H](CC(C)C)C(=O)N[C@@H](C)C(=O)O)[C@@H](C)O)NC(=O)[C@H](CCCNC(=N)N)NC(=O)[C@H](Cc2c[nH]cn2)NC(=O)[C@H](CC(C)C)NC1=O)[C@@H](C)O` [S-pep7, Ac-ETRRXLHRXFDTLA] (Ac-ETRR[S5]LHR[S5]FDTLA-OH; staple 5-9; C-terminus assumed) was tested. Which EC50 ([1]; 1 h) did it give?
The EC50 was 35.5 µM.

With `CSCC[C@H](NC(=O)[C@H](CCCNC(=N)N)NC(=O)[C@H](CCCNC(=N)N)NC(=O)[C@@H](NC(=O)[C@H](CCC(=O)O)NC(C)=O)[C@@H](C)O)C(=O)N[C@@H](CC(C)C)C(=O)N[C@@H](Cc1c[nH]cn1)C(=O)N[C@@]1(C)CCCC=CCCC[C@@](C)(C(=O)N[C@@H](CC(C)C)C(=O)N[C@@H](C)C(=O)O)NC(=O)[C@H](CC(=O)O)NC(=O)[C@H](Cc2ccccc2)NC(=O)[C@H](C)NC1=O` [S-pep8, Ac-ETRRMLHXAFDXLA] (Ac-ETRRMLH[S5]AFD[S5]LA-OH; staple 8-12; C-terminus assumed) as the molecule, how does the EC50 ([1]; 1 h) read?
The EC50 was about 100 µM.

B1: S-pep5 (peptide)
peptide: Ac-[S5]RRM[S5]HRAFDTLA
modifications: staple 1-5
How did the “IC50, µM (HSV1 UL30+UL42); HSV-1 DNA synthesis inhibition” value (shortened to “IC50 … HSV-1 DNA synthesis inhibition”) [3] turn out when B1 was run?
The value was over 200 µM.

B2: S-pep3 (peptide)
peptide: Ac-AE[S5]TRR[S5]LHRAFDTLA
modifications: staple 3-7
With B2 as the molecule, how does the “IC50 … HSV-1 DNA synthesis inhibition” value [3] read?
The value was 12.7 µM.

B3: S-pep7 (peptide)
peptide: Ac-ETRR[S5]LHR[S5]FDTLA
modifications: staple 5-9
Which “IC50 … HSV-1 DNA synthesis inhibition” value [3] does the source give for B3 here?
Its value is 5.5 µM.

B4: S-pep1 (peptide)
peptide: Ac-[S5]TRR[S5]LHRAFDTLA
modifications: staple 1-5
Which “IC50 … HSV-1 DNA synthesis inhibition” value [3] does the source give for B4 here?
The value was 12 µM.

B5: S-pep7A (peptide)
peptide: Ac-VTRR[S5]LHR[S5]FDTLA
modifications: staple 5-9
Which “IC50 … HSV-1 DNA synthesis inhibition” value [3] does the source give for B5 here?
The value was 1.7 µM.

B6: S-pep2 (peptide)
peptide: Ac-[S5]TRR[S5]LHRAF-NH2
modifications: staple 1-5
With B6 as the molecule, how does the “IC50 … HSV-1 DNA synthesis inhibition” value [3] read?
The value was over 200 µM.

B7: S-pep7B (peptide)
peptide: Ac-VVTRR[S5]LHR[S5]FDTLA
modifications: staple 6-10
For B7, which “IC50 … HSV-1 DNA synthesis inhibition” value [3] is on record?
Its value is 1 µM.

B8: S-pep8 (peptide)
peptide: Ac-ETRRMLH[S5]AFD[S5]LA
modifications: staple 8-12
With B8 as the molecule, how does the “IC50 … HSV-1 DNA synthesis inhibition” value [3] read?
The value was 20.7 µM.

B9: S-pep7D (peptide)
peptide: Ac-RRTRR[S5]LHR[S5]FDTLA
modifications: staple 6-10
Which “IC50 … HSV-1 DNA synthesis inhibition” value [3] does the source give for B9 here?
The value was 2 µM.

B10: S-pep7C (peptide)
peptide: Ac-RTRR[S5]LHR[S5]FDTLA
modifications: staple 5-9
For B10, which “IC50 … HSV-1 DNA synthesis inhibition” value [3] is on record?
The value was 1.7 µM.
